Assay results: the supplement of paper PMC13207355
Where a name gives a salt, the structure may show the parent alone.

Assays:
Conditions in all cases: exposure time: 72 h
E57 [1] = patient-derived glioblastoma stem cells of mesenchymal subtype; assay: phenotypic distance (Euclidean, principal components) from DMSO controls (arbitrary units); higher = stronger morphological change
E21 [2] = patient-derived glioblastoma stem cells of mesenchymal subtype; assay: as above
E13 [3] = patient-derived glioblastoma stem cells of classical subtype; assay: as above
E31 [4] = patient-derived glioblastoma stem cells of proneural subtype; assay: as above
E28 [5] = patient-derived glioblastoma stem cells of classical subtype; assay: as above
E34 [6] = patient-derived glioblastoma stem cells of proneural subtype; assay: as above
FT3469 [7] = normal neural stem cell line; assay: as above
E57 [8] = assay: surviving fraction (nuclei count normalised to DMSO); higher = more cells surviving (less toxic)
E21 [9] = assay: as above
E13 [10] = assay: as above
E31 [11] = assay: as above
E28 [12] = assay: as above
E34 [13] = assay: as above
FT3469 [14] = assay: as above
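Throughout, for phenotypic distance (Euclidean, principal components) from DMSO controls: cell Painting imaging in 384-well plates, CellProfiler features reduced to at least 20 principal components, Euclidean distance versus same-plate DMSO vehicle wells (0.1% v/v), median over six images per well.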
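Throughout, for surviving fraction (nuclei count normalised to DMSO): nuclei counted by high-content imaging of Hoechst-stained cells in laminin-coated 384-well plates, relative to 0.1% DMSO vehicle wells, with staurosporine as cell-death control.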

CN(C)CCN(Cc1ccc(Cl)cc1)c1ccccn1 [Chloropyramine hydrochloride]
Conditions | phenotypic distance | surviving fraction
E13 [3], 4.1 nM | 0.601 | –
E13 [3], 12.3 nM | 0.447 | –
E13 [3], 37 nM | 0.683 | –
E13 [3], 111.1 nM | 0.455 | –
E13 [3], 333.3 nM | 0.745 | –
E13 [3], 1000 nM | 1.13 | –
E13 [3], 3000 nM | 0.879 | –
E13 [10], 4.1 nM | – | 0.918
E13 [10], 12.3 nM | – | 0.933
E13 [10], 37 nM | – | 0.988
E13 [10], 111.1 nM | – | 0.881
E13 [10], 333.3 nM | – | 0.847
E13 [10], 1000 nM | – | 0.953
E13 [10], 3000 nM | – | 0.933
E21 [2], 4.1 nM | 0.655 | –
E21 [2], 12.3 nM | 0.862 | –
E21 [2], 37 nM | 0.953 | –
E21 [2], 111.1 nM | 0.778 | –
E21 [2], 333.3 nM | 0.678 | –
E21 [2], 1000 nM | 1.38 | –
E21 [2], 3000 nM | 1.62 | –
E21 [9], 4.1 nM | – | 0.942
E21 [9], 12.3 nM | – | 1.03
E21 [9], 37 nM | – | 0.87
E21 [9], 111.1 nM | – | 0.922
E21 [9], 333.3 nM | – | 0.993
E21 [9], 1000 nM | – | 1.12
E21 [9], 3000 nM | – | 1.08
E28 [5], 4.1 nM | 1.02 | –
E28 [5], 12.3 nM | 1.04 | –
E28 [5], 37 nM | 0.979 | –
E28 [5], 111.1 nM | 0.796 | –
E28 [5], 333.3 nM | 1.02 | –
E28 [5], 1000 nM | 0.889 | –
E28 [5], 3000 nM | 0.936 | –
E28 [12], 4.1 nM | – | 1.1
E28 [12], 12.3 nM | – | 0.995
E28 [12], 37 nM | – | 1.11
E28 [12], 111.1 nM | – | 0.91
E28 [12], 333.3 nM | – | 1.03
E28 [12], 1000 nM | – | 1.19
E28 [12], 3000 nM | – | 1.13
E31 [4], 4.1 nM | 1.06 | –
E31 [4], 12.3 nM | 0.615 | –
E31 [4], 37 nM | 0.841 | –
E31 [4], 111.1 nM | 0.689 | –
E31 [4], 333.3 nM | 0.862 | –
E31 [4], 1000 nM | 0.815 | –
E31 [4], 3000 nM | 0.985 | –
E31 [11], 4.1 nM | – | 0.968
E31 [11], 12.3 nM | – | 0.91
E31 [11], 37 nM | – | 0.853
E31 [11], 111.1 nM | – | 0.919
E31 [11], 333.3 nM | – | 0.897
E31 [11], 1000 nM | – | 0.946
E31 [11], 3000 nM | – | 0.856
E34 [6], 4.1 nM | 1.29 | –
E34 [6], 12.3 nM | 1.02 | –
E34 [6], 37 nM | 1.15 | –
E34 [6], 111.1 nM | 2.53 | –
E34 [6], 333.3 nM | 0.82 | –
E34 [6], 1000 nM | 0.757 | –
E34 [6], 3000 nM | 1.2 | –
E34 [13], 4.1 nM | – | 0.981
E34 [13], 12.3 nM | – | 0.964
E34 [13], 37 nM | – | 1.06
E34 [13], 111.1 nM | – | 0.866
E34 [13], 333.3 nM | – | 0.942
E34 [13], 1000 nM | – | 1.14
E34 [13], 3000 nM | – | 1
E57 [1], 4.1 nM | 0.61 | –
E57 [1], 12.3 nM | 0.445 | –
E57 [1], 37 nM | 0.59 | –
E57 [1], 111.1 nM | 0.607 | –
E57 [1], 333.3 nM | 0.699 | –
E57 [1], 1000 nM | 0.663 | –
E57 [1], 3000 nM | 0.75 | –
E57 [8], 4.1 nM | – | 0.916
E57 [8], 12.3 nM | – | 0.978
E57 [8], 37 nM | – | 0.96
E57 [8], 111.1 nM | – | 0.936
E57 [8], 333.3 nM | – | 0.986
E57 [8], 1000 nM | – | 1.02
E57 [8], 3000 nM | – | 1.03
FT3469 [7], 4.1 nM | 1.06 | –
FT3469 [7], 12.3 nM | 0.715 | –
FT3469 [7], 37 nM | 0.697 | –
FT3469 [7], 111.1 nM | 0.656 | –
FT3469 [7], 333.3 nM | 0.847 | –
FT3469 [7], 1000 nM | 0.895 | –
FT3469 [7], 3000 nM | 0.975 | –
FT3469 [14], 4.1 nM | – | 0.774
FT3469 [14], 12.3 nM | – | 1.01
FT3469 [14], 37 nM | – | 0.947
FT3469 [14], 111.1 nM | – | 0.867
FT3469 [14], 333.3 nM | – | 0.758
FT3469 [14], 1000 nM | – | 0.878
FT3469 [14], 3000 nM | – | 0.928

S=c1[nH]cnc2nc[nH]c12 [Mercaptopurine]
Conditions | phenotypic distance | surviving fraction
E13 [3], 4.1 nM | 0.545 | –
E13 [3], 12.3 nM | 0.627 | –
E13 [3], 37 nM | 0.483 | –
E13 [3], 111.1 nM | 0.814 | –
E13 [3], 333.3 nM | 0.609 | –
E13 [3], 1000 nM | 0.518 | –
E13 [3], 3000 nM | 0.658 | –
E13 [10], 4.1 nM | – | 0.921
E13 [10], 12.3 nM | – | 0.917
E13 [10], 37 nM | – | 0.937
E13 [10], 111.1 nM | – | 1.04
E13 [10], 333.3 nM | – | 0.899
E13 [10], 1000 nM | – | 1.07
E13 [10], 3000 nM | – | 0.933
E21 [2], 4.1 nM | 0.78 | –
E21 [2], 12.3 nM | 1.43 | –
E21 [2], 37 nM | 0.81 | –
E21 [2], 111.1 nM | 0.892 | –
E21 [2], 333.3 nM | 0.78 | –
E21 [2], 1000 nM | 1.02 | –
E21 [2], 3000 nM | 0.813 | –
E21 [9], 4.1 nM | – | 1.09
E21 [9], 12.3 nM | – | 1.04
E21 [9], 37 nM | – | 0.958
E21 [9], 111.1 nM | – | 1.01
E21 [9], 333.3 nM | – | 0.977
E21 [9], 1000 nM | – | 0.922
E21 [9], 3000 nM | – | 1.05
E28 [5], 4.1 nM | 0.534 | –
E28 [5], 12.3 nM | 1.01 | –
E28 [5], 37 nM | 0.638 | –
E28 [5], 111.1 nM | 0.681 | –
E28 [5], 333.3 nM | 0.395 | –
E28 [5], 1000 nM | 0.531 | –
E28 [5], 3000 nM | 0.838 | –
E28 [12], 4.1 nM | – | 0.929
E28 [12], 12.3 nM | – | 1.02
E28 [12], 37 nM | – | 0.893
E28 [12], 111.1 nM | – | 1.13
E28 [12], 333.3 nM | – | 0.931
E28 [12], 1000 nM | – | 0.942
E28 [12], 3000 nM | – | 0.996
E31 [4], 4.1 nM | 0.771 | –
E31 [4], 12.3 nM | 0.551 | –
E31 [4], 37 nM | 0.636 | –
E31 [4], 111.1 nM | 0.699 | –
E31 [4], 333.3 nM | 0.484 | –
E31 [4], 1000 nM | 0.59 | –
E31 [4], 3000 nM | 0.762 | –
E31 [11], 4.1 nM | – | 1.1
E31 [11], 12.3 nM | – | 1.04
E31 [11], 37 nM | – | 0.994
E31 [11], 111.1 nM | – | 1.08
E31 [11], 333.3 nM | – | 1
E31 [11], 1000 nM | – | 1.16
E31 [11], 3000 nM | – | 0.862
E34 [6], 4.1 nM | 0.504 | –
E34 [6], 12.3 nM | 0.959 | –
E34 [6], 37 nM | 0.783 | –
E34 [6], 111.1 nM | 0.796 | –
E34 [6], 333.3 nM | 0.438 | –
E34 [6], 1000 nM | 0.992 | –
E34 [6], 3000 nM | 0.809 | –
E34 [13], 4.1 nM | – | 1.04
E34 [13], 12.3 nM | – | 1.18
E34 [13], 37 nM | – | 1.17
E34 [13], 111.1 nM | – | 1.09
E34 [13], 333.3 nM | – | 0.961
E34 [13], 1000 nM | – | 1.18
E34 [13], 3000 nM | – | 0.823
E57 [1], 4.1 nM | 0.611 | –
E57 [1], 12.3 nM | 0.822 | –
E57 [1], 37 nM | 1.19 | –
E57 [1], 111.1 nM | 0.97 | –
E57 [1], 333.3 nM | 0.524 | –
E57 [1], 1000 nM | 0.658 | –
E57 [1], 3000 nM | 0.893 | –
E57 [8], 4.1 nM | – | 1.14
E57 [8], 12.3 nM | – | 1.06
E57 [8], 37 nM | – | 1.02
E57 [8], 111.1 nM | – | 1.03
E57 [8], 333.3 nM | – | 1.06
E57 [8], 1000 nM | – | 1.11
E57 [8], 3000 nM | – | 1.1
FT3469 [7], 4.1 nM | 0.501 | –
FT3469 [7], 12.3 nM | 0.977 | –
FT3469 [7], 37 nM | 0.81 | –
FT3469 [7], 111.1 nM | 1.22 | –
FT3469 [7], 333.3 nM | 0.759 | –
FT3469 [7], 1000 nM | 0.781 | –
FT3469 [7], 3000 nM | 0.82 | –
FT3469 [14], 4.1 nM | – | 1.13
FT3469 [14], 12.3 nM | – | 1.18
FT3469 [14], 37 nM | – | 1.05
FT3469 [14], 111.1 nM | – | 1.24
FT3469 [14], 333.3 nM | – | 1.1
FT3469 [14], 1000 nM | – | 1.09
FT3469 [14], 3000 nM | – | 1.18
